Data as given in patent US7868006B2, “Heterocyclic substituted piperazines with CXCR3 antagonist activity” (Schering Corporation, priority 2005, dated 2011).

Target: T1, human CXCR3 (N-delta 4) (Homo sapiens, UniProt P49682)
T1 construct: CD8 leader (N); Flag tag (N); expressed in transfected cells; host or cells: mouse pro-B Ba/F3 cells, stably transfected with pME18Sneo-hCXCR3 (N-delta 4); membrane preparation
T1 sequence (P49682 5-368 limits assumed): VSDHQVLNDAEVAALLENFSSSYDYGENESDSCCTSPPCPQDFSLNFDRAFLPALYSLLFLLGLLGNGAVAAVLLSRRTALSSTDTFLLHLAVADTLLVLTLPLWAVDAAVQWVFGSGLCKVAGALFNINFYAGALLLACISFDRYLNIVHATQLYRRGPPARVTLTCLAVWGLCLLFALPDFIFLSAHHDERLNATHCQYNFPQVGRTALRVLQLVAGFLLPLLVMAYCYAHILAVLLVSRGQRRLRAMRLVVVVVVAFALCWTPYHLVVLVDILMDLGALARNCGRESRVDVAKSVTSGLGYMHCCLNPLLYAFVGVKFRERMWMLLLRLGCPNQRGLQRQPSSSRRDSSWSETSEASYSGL
Assay: Human CXCR3 (N-delta 4) Scintillation Proximity Assay (SPA), [125I] IP-10 binding
Conditions: IC50 rating; Ba/F3-hCXCR3 (N-delta 4) membranes, 25 pM [125I] IP-10; read-out: IC50
Description: The inventive compounds can readily be evaluated to determine activity at The CXCR3 receptors by known methods, such as, for example, Development of Human CXCR3 (N-delta 4) Binding Assay.
Cloning and Expression of Human CXCR3 (N-delta 4):
The DNA encoding human CXCR3 was cloned by PCR using human genomic DNA (Promega, Madison, Wis.) as a template. The PCR primers were designed based on the published sequence of human orphan receptor GPR9 (1) with incorporated restriction sites, a Kozak consensus sequence, CD8 leader and Flag tag. The PCR product was subcloned into the mammalian expression vector pME18Sneo, a derivative of the SR-alpha expression vector (designated as pME18Sneo-hCXCR3 (N-delta 4).
IL-3-dependent mouse pro-B cells Ba/F3 were transfected by electroporation in 0.4 ml Dulbecco's PBS containing 4×10^6 cells with 20 μg of pME18Sneo-hCXCR3 (N-delta 4) plasmid DNA. Cells were pulsed at 400 Volts, 100 OHMs, 960 μFd. The transfected cells were under selection with 1 mg/ml G418 (Life Technologies, Gaithersburg, Md.). G418-resistant Ba/F3 clones were screened for CXCR3 expression by specific binding of [^125I] IP-10 (NEN Life Science Products, Boston, Mass.).
Preparation of Ba/F3-hCXCR3 (N-delta 4) Membranes:
Ba/F3 cells expressing human CXCR3 (N-delta 4) were pelleted and resuspended in the lysis buffer containing 10 mM HEPES, pH 7.5 and Complete® protease inhibitors (1 tablet per 100 ml) (Boehringer Mannheim, Indianapolis, Ind.) at a cell density of 20×10^6 cells per ml. After 5 minutes incubation on ice, cells were transferred to 4639 cell disruption bomb (Parr Instrument, Moline, Ill.) and applied with 1,500 psi of nitrogen for 30 minutes on ice. Large cellular debris was removed by centrifugation at 1,000×g. Cell membrane in the supernatant was sedimented at 100,000×g. The membrane was resuspended in the lysis buffer supplemented with 10% sucrose and stored at −80° C. Total protein concentration of the membrane was determined by BCA method from Pierce (Rockford, Ill.).
Human CXCR3 (N-delta 4) Scintillation Proximity Assay (SPA):
For each assay point, 2 μg of membrane was preincubated for 1 hr with 300 μg wheat germ agglutinin (WGA) coated SPA beads (Amersham, Arlington Heights, Ill.) in the binding buffer (50 mM HEPES, 1 mM CaCl2, 5 mM MgCl2, 125 mM NaCl, 0.002% NaN3, 1.0% BSA) at room temperature. The beads were spun down, washed once, resuspended in the binding buffer and transferred to a 96-well Isoplate (Wallac, Gaithersburg, Md.). 25 pM of [^125I] IP-10 with tested compounds in a series of titration were added to start the reaction. After 3 hr reaction at room temperature, the amount of [^125I] IP-10 bound to the SPA beads was determined with a Wallac 1450 Microbeta counter.
The Ki values for the various example compounds of the present invention are given in the afore-mentioned Table 1. From these values, it would be apparent to the skilled artisan that the compounds of the invention have excellent utility CXCR3 antagonists.

SMILES: CC[C@H]1CN(c2nc(N)c(-c3nnco3)nc2Cl)CCN1C1CCN(Cc2ccc(Cl)cc2)CC1 [Compound 50]
- IC50: < 25 nM

SMILES: CC[C@H]1CN(c2ncc(-c3nnc(C)[nH]3)nc2Cl)CCN1C1CCN(C(=O)c2ccc(Cl)cc2)CC1 [Compound 51]
- IC50: < 25 nM

SMILES: CC[C@H]1CN(c2nc(N)c(-c3nnc(C4CC4)o3)nc2Cl)CCN1C1CCN(C(=O)c2ccc(Cl)nc2N)CC1 [Compound 52]
- IC50: < 25 nM

SMILES: CC[C@H]1CN(c2ncc(-c3nnc(C)[nH]3)nc2C)CCN1C1CCN(C(=O)c2ccc(Cl)cc2)CC1 [Compound 53]
- IC50: < 25 nM

SMILES: CC[C@H]1CN(c2nc(F)c(-c3nnc(C)o3)nc2Cl)CCN1C1CCN(C(=O)c2ccc(Cl)cc2)CC1 [Compound 54]
- IC50: < 25 nM

SMILES: CC[C@H]1CN(c2nc(N)c(-c3nnc(C)o3)nc2Cl)CCN1C1CCN(Cc2ccc(Cl)cc2-c2nnn[nH]2)CC1 [Compound 55]
- IC50: < 25 nM

SMILES: CC[C@H]1CN(c2nc(N)c(-c3nnc(N)o3)nc2Cl)CCN1C1CCN(C(=O)c2ccc(C#N)cc2)CC1 [Compound 56]
- IC50: < 25 nM

SMILES: CC[C@H]1CN(c2nc(N)c(-c3nnc(C)o3)nc2Cl)CCN1C1CCN(C(=O)c2ccc(Cl)nc2)CC1 [Compound 57]
- IC50: < 25 nM

SMILES: CC[C@H]1CN(c2nc(N)c(-c3nnc(C)o3)nc2Cl)CCN1C1CCN(Cc2ccc(Cl)cc2-c2nnn(C)n2)CC1 [Compound 58]
- IC50: < 25 nM

SMILES: CC[C@H]1CN(c2nc(N)c(-c3nnc(C(F)(F)F)o3)nc2Cl)CCN1C1CCN(Cc2ccc(Cl)cc2)CC1 [Compound 59]
- IC50: < 25 nM

SMILES: CCO/C=N\c1nc(N2CCN(C3CCN(Cc4ccc(Cl)cc4)CC3)[C@@H](CC)C2)c(Cl)nc1-c1nnco1 [Compound 60]
- IC50: < 25 nM

SMILES: CC[C@H]1CN(c2nc(N)c(-c3nnc(C)o3)nc2Cl)CCN1C1CCN([C@@H](C(=O)OC)c2ccc(Cl)cc2)CC1 [Compound 61]
- IC50: < 25 nM

SMILES: CC[C@H]1CN(c2nc(N)c(-c3nnc(C)o3)nc2Cl)CCN1C1CCN([C@H](CO)c2ccc(Cl)cc2)CC1 [Compound 62]
- IC50: < 25 nM

SMILES: CC[C@H]1CN(c2ncc(-c3nnc(C)o3)nc2C)CCN1C1CCN(C(=O)c2ccc(F)c(F)c2)CC1 [Compound 63]
- IC50: < 25 nM

SMILES: CC[C@H]1CN(c2ncc(-c3nnc(C)o3)nc2C)CCN1C1CCN(C(=O)c2ccc(C#N)cc2)CC1 [Compound 64]
- IC50: < 25 nM

SMILES: CC[C@H]1CN(c2ncc(-c3nnc(C)o3)nc2C)CCN1C1CCN(C(=O)c2ccc(OC(F)(F)F)cc2)CC1 [Compound 65]
- IC50: < 25 nM

SMILES: CC[C@H]1CN(c2ncc(-c3nnc(N)[nH]3)nc2Cl)CCN1C1CCN(C(=O)c2ccc(Cl)cc2)CC1 [Compound 66]
- IC50: < 25 nM

SMILES: CC[C@H]1CN(c2nc(N)c(-c3nnc(C)o3)nc2Cl)CCN1C1CCN(C(=O)c2ccc(Cl)cc2O)CC1 [Compound 67]
- IC50: < 25 nM

SMILES: CC[C@H]1CN(c2nc(N)c(-c3nnc(N)[nH]3)nc2Cl)CCN1C1CCN(C(=O)c2ccc(Cl)cc2)CC1 [Compound 68]
- IC50: < 25 nM

SMILES: CC[C@H]1CN(c2nc(N)c(-c3nnc(CO)o3)nc2Cl)CCN1C1CCN([C@H](CO)c2ccc(Cl)cc2)CC1 [Compound 69]
- IC50: < 25 nM

SMILES: CC[C@H]1CN(c2nc(N)c(-c3nnc(C(N)=O)o3)nc2Cl)CCN1C1CCN(C(=O)c2ccc(Cl)cc2)CC1 [Compound 70]
- IC50: < 25 nM

SMILES: CC[C@H]1CN(c2nc(N)c(-c3nnc(N(C)C)o3)nc2Cl)CCN1C1CCN(C(=O)c2ccc(Cl)nc2N)CC1 [Compound 71]
- IC50: < 25 nM

SMILES: CC[C@H]1CN(c2ncc(-c3nnc(N)o3)nc2C)CCN1C1CCN(C(=O)c2ccc(C(F)(F)F)cc2)CC1 [Compound 72]
- IC50: < 25 nM

SMILES: CC[C@H]1CN(c2nc(N)c(-c3nnc(C(=O)NC4CC4)o3)nc2Cl)CCN1C1CCN(C(=O)c2ccc(Cl)nc2N)CC1 [Compound 73]
- IC50: 25 to 100 nM

SMILES: CC[C@H]1CN(c2nc(N)c(-c3nnc(C)o3)nc2Cl)CCN1C1CCN(C(=O)c2ccc(Cl)cc2NC(=O)C(F)(F)F)CC1 [Compound 74]
- IC50: 25 to 100 nM

SMILES: CC[C@H]1CN(c2nc(N)c(-c3nnc(NCC(N)=O)o3)nc2Cl)CCN1C1CCN(C(=O)c2ccc(Cl)nc2N)CC1 [Compound 75]
- IC50: 25 to 100 nM

SMILES: CC[C@H]1CN(c2nc(N)c(-c3nnc(N)o3)nc2Cl)CCN1C1CCN(C(=O)c2ccc(OC(F)(F)F)cc2)CC1 [Compound 76]
- IC50: 25 to 100 nM

SMILES: CC[C@H]1CN(c2nc(N)c(-c3nnc(C(=O)NCC(F)(F)F)o3)nc2Cl)CCN1C1CCN(C(=O)c2ccc(Cl)cc2)CC1 [Compound 77]
- IC50: 25 to 100 nM

SMILES: CC[C@H]1CN(c2nc(N)c(-c3nnc(C(C)(C)O)o3)nc2Cl)CCN1C1CCN(C(=O)c2ccc(Cl)cc2)CC1 [Compound 78]
- IC50: 25 to 100 nM

SMILES: CC[C@H]1CN(c2nc(N)c(-c3nnc(OC)o3)nc2Cl)CCN1C1CCN(C(=O)c2ccc(Cl)nc2N)CC1 [Compound 79]
- IC50: > 100 nM

SMILES: CC[C@H]1CN(c2nc(N)c(-c3nnc(C(F)(F)F)o3)nc2Cl)CCN1C1CCN(C(=O)c2ccc(Cl)cc2)CC1 [Compound 80]
- IC50: > 100 nM

SMILES: CCOC(=O)c1nnc(-c2nc(Cl)c(N3CCN(C4CCN(C(=O)c5ccc(Cl)nc5N)CC4)[C@@H](CC)C3)nc2N)o1 [Compound 81]
- IC50: > 100 nM

SMILES: CC[C@H]1CN(c2nc(N)c(-c3nnc(C)o3)nc2Cl)CCN1C1CCN(C(=O)c2cc(F)c(N)nc2Cl)CC1 [Compound 82]
- IC50: > 100 nM

SMILES: CC[C@H]1CN(c2nc(N)c(-c3nnc(C)o3)nc2Cl)CCN1C1CCN([C@H](C(=O)OC)c2ccc(Cl)cc2)CC1 [Compound 83]
- IC50: > 100 nM

SMILES: CC[C@H]1CN(c2nc(N)c(-c3nc(N)no3)nc2Cl)CCN1C1CCN(C(=O)c2ccc(Cl)nc2N)CC1 [Compound 84]
- IC50: > 100 nM

SMILES: CC[C@H]1CN(c2nc(N)c(-c3nnc(CO)o3)nc2Cl)CCN1C1CCN([C@H](C(=O)OC)c2ccc(Cl)cc2)CC1 [Compound 85]
- IC50: > 100 nM

SMILES: CC[C@H]1CN(c2nc(N)c(-c3n[nH]c(=S)n3C)nc2Cl)CCN1C1CCN(Cc2ccc(Cl)cc2)CC1 [Compound 86]
- IC50: > 100 nM

SMILES: CC[C@H]1CN(c2nc(N)c(-c3n[nH]c(=O)o3)nc2Cl)CCN1C1CCN(Cc2ccc(Cl)cc2)CC1 [Compound 87]
- IC50: > 100 nM

SMILES: CC[C@H]1CN(c2nc(N)c(-c3nnc(C(=O)NC4CC4)o3)nc2Cl)CCN1C1CCN(C(=O)c2ccc(Cl)cc2)CC1 [Compound 88]
- IC50: > 100 nM

SMILES: CC[C@H]1CN(c2nc(O)c(-c3nnc(C)o3)nc2Cl)CCN1C1CCN(C(=O)c2ccc(Cl)cc2)CC1 [Compound 89]
- IC50: > 100 nM

SMILES: CC[C@H]1CN(c2nc(NC(C)=O)c(-c3nnc(C)o3)nc2Cl)CCN1C1CCN(Cc2ccc(Cl)cc2)CC1 [Compound 90]
- IC50: > 100 nM

SMILES: CCOC(=O)c1nnc(-c2nc(Cl)c(N3CCN(C4CCN(C(=O)c5ccc(Cl)cc5)CC4)[C@@H](CC)C3)nc2N)o1 [Compound 91]
- IC50: > 100 nM

SMILES: CC[C@H]1CN(c2nc(N)c(-c3nnc(C)o3)nc2Cl)CCN1C1CCN(C(=O)c2ccc(Cl)cc2NS(C)(=O)=O)CC1 [Compound 92]
- IC50: > 100 nM

SMILES: CCNc1nnc(-c2nc(Cl)c(N3C[C@H](CC)N(C4CCN(C(=O)c5ccc(Cl)nc5N)CC4)C[C@H]3C)nc2N)o1 [Compound 93]
- IC50: < 25 nM

SMILES: CC[C@H]1CN(c2nc(N)c(-c3nnc(C)o3)nc2Cl)CCN1C1CCN(Cc2cnc(N)nc2)CC1 [Compound 95]
- IC50: > 100 nM

SMILES: CCNc1nnc(-c2cnc(N3C[C@H](CC)N(C4CCN(C(=O)c5ccc(Cl)cc5)CC4)C[C@H]3C)c(C)n2)o1 [Compound 96]
- IC50: < 25 nM

SMILES: CCNc1nnc(-c2cnc(N3C[C@H](CC)N(C4CCN(C(=O)c5ccc(Cl)nc5N)CC4)C[C@H]3C)c(C)n2)o1 [Compound 97]
- IC50: < 25 nM
